Source: article PMC5218480 (PLoS ONE, 2017)

Test system: MV-4-11 cells
Experiment: Gene expression microarray analysis (Affymetrix PrimeView) and GSEA
Type: cell-based, human
Design: RFU PODN (11730768_x_at) / Fold change /veh PODN (11730768_x_at) / RFU LINC00158 (11744669_a_at) / Fold change /veh LINC00158 (11744669_a_at) / RFU DUSP10 (11751237_a_at) / Fold change /veh DUSP10 (11751237_a_at) / RFU ID3 (11757404_x_at) / Fold change /veh ID3 (11757404_x_at) / RFU PLEKHG5 (11737974_s_at) / Fold change /veh PLEKHG5 (11737974_s_at) / RFU LRRC4B (11730491_at) / Fold change /veh LRRC4B (11730491_at) / RFU GIMAP4 (11747438_a_at) / Fold change /veh GIMAP4 (11747438_a_at) / RFU KRT8 (11758183_x_at) / Fold change /veh KRT8 (11758183_x_at) / RFU CNN1 (11734310_a_at) / Fold change /veh CNN1 (11734310_a_at) / RFU VPS37D (11726825_at) / Fold change /veh VPS37D (11726825_at) / RFU C10orf10 (11716522_x_at) / Fold change /veh C10orf10 (11716522_x_at) / RFU KIR2DL2 /// KIR2DL4 /// KIR2DL5A /// KIR2DL5B /// KIR2DS1 /// KIR2DS2 /// KIR2DS3 /// KIR2DS4 /// KIR3DL3 /// KIR3DL3 /// KIR3DS1 (11738374_at) / Fold change /veh KIR2DL2 /// KIR2DL4 /// KIR2DL5A /// KIR2DL5B /// KIR2DS1 /// KIR2DS2 /// KIR2DS3 /// KIR2DS4 /// KIR3DL3 /// KIR3DL3 /// KIR3DS1 (11738374_at) / RFU C1QL1 (11718748_at) / Fold change /veh C1QL1 (11718748_at) / RFU TMPRSS4 (11747572_a_at) / Fold change /veh TMPRSS4 (11747572_a_at) / RFU HAMP (11756126_x_at) / Fold change /veh HAMP (11756126_x_at) / RFU RNFT2 (11725882_a_at) / Fold change /veh RNFT2 (11725882_a_at) / RFU NR4A2 (11747474_a_at) / Fold change /veh NR4A2 (11747474_a_at) / RFU ABCC12 (11746883_a_at) / Fold change /veh ABCC12 (11746883_a_at) / RFU TMEM136 (11760407_x_at) / Fold change /veh TMEM136 (11760407_x_at) / RFU CLDN22 /// WWC2 (11732394_at) / Fold change /veh CLDN22 /// WWC2 (11732394_at) / RFU HLA-DPB1 (11760878_x_at) / Fold change /veh HLA-DPB1 (11760878_x_at) / RFU SPINT1 (11716480_a_at) / Fold change /veh SPINT1 (11716480_a_at) / RFU GAP43 (11754022_s_at) / Fold change /veh GAP43 (11754022_s_at) / RFU A4GNT (11735810_at) / Fold change /veh A4GNT (11735810_at) / RFU PRB3 (11715151_x_at) / Fold change /veh PRB3 (11715151_x_at) / RFU TUBB4B (11761932_at) / Fold change /veh TUBB4B (11761932_at) / RFU CAPN14 (11732068_a_at) / Fold change /veh CAPN14 (11732068_a_at) / RFU TMCC2 (11721928_a_at) / Fold change /veh TMCC2 (11721928_a_at) / RFU IRGQ (11745062_a_at) / Fold change /veh IRGQ (11745062_a_at) / RFU FAM174B (11720279_a_at) / Fold change /veh FAM174B (11720279_a_at) / RFU TMPRSS4 (11748680_a_at) / Fold change /veh TMPRSS4 (11748680_a_at) / RFU FAM212B (11763350_a_at) / Fold change /veh FAM212B (11763350_a_at) / RFU PLEKHG5 (11743358_a_at) / Fold change /veh PLEKHG5 (11743358_a_at) / RFU ZSCAN30 (11745921_a_at) / Fold change /veh ZSCAN30 (11745921_a_at) / RFU CMKLR1 (11741424_a_at) / Fold change /veh CMKLR1 (11741424_a_at) / RFU LOC101060620 /// MAPK8IP1 (11723275_at) / Fold change /veh LOC101060620 /// MAPK8IP1 (11723275_at) / RFU SPTSSB (11747773_x_at) / Fold change /veh SPTSSB (11747773_x_at) / RFU PRSS12 (11739890_at) / Fold change /veh PRSS12 (11739890_at) / RFU BIN1 (11741810_x_at) / Fold change /veh BIN1 (11741810_x_at) / RFU WNT11 (11732464_a_at) / Fold change /veh WNT11 (11732464_a_at) / RFU C10orf10 (11716521_a_at) / Fold change /veh C10orf10 (11716521_a_at) / RFU C5orf56 (11738089_at) / Fold change /veh C5orf56 (11738089_at) / RFU CYB561 (11721691_x_at) / Fold change /veh CYB561 (11721691_x_at) / RFU ANKRD19P (11752326_a_at) / Fold change /veh ANKRD19P (11752326_a_at) / RFU OR2T12 /// OR2T33 /// OR2T8 (11738714_s_at) / Fold change /veh OR2T12 /// OR2T33 /// OR2T8 (11738714_s_at) / RFU VCAN (11748164_a_at) / Fold change /veh VCAN (11748164_a_at) / RFU JSRP1 (11732532_at) / Fold change /veh JSRP1 (11732532_at) / RFU KRTAP10-11 (11738290_x_at) / Fold change /veh KRTAP10-11 (11738290_x_at) / RFU MYO3A (11730013_a_at) / Fold change /veh MYO3A (11730013_a_at) / RFU EBF3 (11725865_a_at) / Fold change /veh EBF3 (11725865_a_at) / RFU CAMK2N1 (11719241_x_at) / Fold change /veh CAMK2N1 (11719241_x_at) / RFU C5orf56 (11738088_a_at) / Fold change /veh C5orf56 (11738088_a_at) / RFU OLFML3 (11715873_a_at) / Fold change /veh OLFML3 (11715873_a_at) / RFU LOC100653217 /// NTM (11731650_a_at) / Fold change /veh LOC100653217 /// NTM (11731650_a_at) / RFU MAPK11 (11762145_a_at) / Fold change /veh MAPK11 (11762145_a_at) / RFU FIZ1 (11724087_x_at) / Fold change /veh FIZ1 (11724087_x_at) / RFU OASL (11726364_x_at) / Fold change /veh OASL (11726364_x_at) / RFU SOX15 (11748057_x_at) / Fold change /veh SOX15 (11748057_x_at) / RFU CD79A (11719716_a_at) / Fold change /veh CD79A (11719716_a_at) / RFU HIST1H1D (11736915_at) / Fold change /veh HIST1H1D (11736915_at) / RFU CASKIN2 (11723855_a_at) / Fold change /veh CASKIN2 (11723855_a_at) / RFU LOC730098 (11760151_x_at) / Fold change /veh LOC730098 (11760151_x_at) / RFU OR4N2 (11742367_at) / Fold change /veh OR4N2 (11742367_at) / RFU PRRT2 (11749266_a_at) / Fold change /veh PRRT2 (11749266_a_at) / RFU SNX32 (11753110_a_at) / Fold change /veh SNX32 (11753110_a_at) / RFU CDHR5 (11726645_a_at) / Fold change /veh CDHR5 (11726645_a_at) / RFU RCAN1 (11760418_a_at) / Fold change /veh RCAN1 (11760418_a_at) / RFU FAM167A (11723789_a_at) / Fold change /veh FAM167A (11723789_a_at) / RFU FAM26E (11764081_at) / Fold change /veh FAM26E (11764081_at) / RFU ISYNA1 (11749810_s_at) / Fold change /veh ISYNA1 (11749810_s_at) / RFU ACY1 (11761880_at) / Fold change /veh ACY1 (11761880_at) / RFU 11764098_at / Fold change /veh 11764098_at / RFU SAMD14 (11745864_x_at) / Fold change /veh SAMD14 (11745864_x_at) / RFU NPB (11741838_a_at) / Fold change /veh NPB (11741838_a_at) / RFU TMPRSS6 (11731388_a_at) / Fold change /veh TMPRSS6 (11731388_a_at) / RFU KRTAP10-2 (11738614_at) / Fold change /veh KRTAP10-2 (11738614_at) / RFU ARHGAP8 /// PRR5-ARHGAP8 (11727945_x_at) / Fold change /veh ARHGAP8 /// PRR5-ARHGAP8 (11727945_x_at) / RFU KRTAP5-7 /// NADSYN1 (11734609_at) / Fold change /veh KRTAP5-7 /// NADSYN1 (11734609_at) / RFU RASL12 (11751679_a_at) / Fold change /veh RASL12 (11751679_a_at) / RFU CDKN2B (11736163_a_at) / Fold change /veh CDKN2B (11736163_a_at) / RFU PRF1 (11729649_at) / Fold change /veh PRF1 (11729649_at) / RFU, ZNF638 /// ZNF638-IT1 / Fold change vs veh, ZNF638 /// ZNF638-IT1 / RFU, PANK3 / Fold change vs veh, PANK3 / RFU, SH3YL1 / Fold change vs veh, SH3YL1 / RFU, ZEB2 / Fold change vs veh, ZEB2 / RFU, NRIP1 / Fold change vs veh, NRIP1 / RFU, PTTG1IP / Fold change vs veh, PTTG1IP / RFU, CAPN2 / Fold change vs veh, CAPN2 / RFU, MED14 / Fold change vs veh, MED14 / RFU, SNORA58 / Fold change vs veh, SNORA58 / RFU, C1orf63 / Fold change vs veh, C1orf63 / RFU, LRRFIP1 / Fold change vs veh, LRRFIP1 / RFU, NDUFAF7 / Fold change vs veh, NDUFAF7 / RFU, SLC12A2 / Fold change vs veh, SLC12A2 / RFU, IBTK / Fold change vs veh, IBTK / RFU, ESF1 / Fold change vs veh, ESF1 / Fold change vs veh, TMEM50B / RFU, TAOK1 / Fold change vs veh, TAOK1 / RFU, ACBD3 / Fold change vs veh, ACBD3 / RFU, TMA16 / Fold change vs veh, TMA16 / RFU, RWDD3 / Fold change vs veh, RWDD3 / RFU, BCAT1 / Fold change vs veh, BCAT1 / RFU, EDEM3 / Fold change vs veh, EDEM3 / RFU, TMEM33 / Fold change vs veh, TMEM33 / RFU, WDR75 / Fold change vs veh, WDR75 / RFU, AHCTF1 / Fold change vs veh, AHCTF1 / RFU, TFRC / Fold change vs veh, TFRC / RFU, ZDHHC17 / Fold change vs veh, ZDHHC17 / RFU, NOM1 / Fold change vs veh, NOM1 / RFU, ARL8B / Fold change vs veh, ARL8B / RFU, ZBTB11 / Fold change vs veh, ZBTB11 / RFU, TAMM41 / Fold change vs veh, TAMM41 / RFU, KIAA1704 /// LOC100996395 / Fold change vs veh, KIAA1704 /// LOC100996395 / RFU, ING1 / Fold change vs veh, ING1 / RFU, TRMT61B / Fold change vs veh, TRMT61B / RFU, FUBP3 / Fold change vs veh, FUBP3 / RFU, TP53 / Fold change vs veh, TP53 / RFU, TNKS2 / Fold change vs veh, TNKS2 / RFU, ZFP14 / Fold change vs veh, ZFP14 / RFU, ACTR2 / Fold change vs veh, ACTR2 / RFU, PPP3R1 / Fold change vs veh, PPP3R1 / RFU, PIK3R1 / Fold change vs veh, PIK3R1 / RFU, HNRNPA1 / Fold change vs veh, HNRNPA1 / RFU, RNF170 / Fold change vs veh, RNF170 / RFU, ZNF28 / Fold change vs veh, ZNF28 / RFU, RNGTT / Fold change vs veh, RNGTT / RFU, OGT / Fold change vs veh, OGT / RFU, BRD1 / Fold change vs veh, BRD1 / RFU, MARS / Fold change vs veh, MARS / RFU, ZNF655 / Fold change vs veh, ZNF655 / RFU, FAHD1 / Fold change vs veh, FAHD1 / RFU, BDP1 / Fold change vs veh, BDP1 / RFU, LRRCC1 / Fold change vs veh, LRRCC1 / RFU, ARID1A / Fold change vs veh, ARID1A / RFU, ZNF146 / Fold change vs veh, ZNF146 / RFU, ZNF330 / Fold change vs veh, ZNF330 / RFU, GPN3 / Fold change vs veh, GPN3 / RFU, C9orf123 / Fold change vs veh, C9orf123 / RFU, N4BP2L2 / Fold change vs veh, N4BP2L2 / RFU, ARFIP1 / Fold change vs veh, ARFIP1 / RFU, FAM179B / Fold change vs veh, FAM179B / RFU, BCL10 / Fold change vs veh, BCL10 / RFU, UHRF1BP1L / Fold change vs veh, UHRF1BP1L / RFU, BET1 / Fold change vs veh, BET1 / RFU, CNOT2 / Fold change vs veh, CNOT2 / RFU, ZNF268 / Fold change vs veh, ZNF268 / Fold change vs veh, ZNF507 / RFU, DGCR2 / Fold change vs veh, DGCR2 / RFU, WDSUB1 / Fold change vs veh, WDSUB1 / Fold change vs veh, HSP90B1 /// MIR3652 / RFU, ADSS / Fold change vs veh, ADSS / RFU, GK / Fold change vs veh, GK / RFU, ZNF148 / Fold change vs veh, ZNF148 / RFU, TAF9 / Fold change vs veh, TAF9 / RFU, SLC1A5 / Fold change vs veh, SLC1A5 / RFU, SLMO2 / Fold change vs veh, SLMO2 / RFU, ABCC4 / Fold change vs veh, ABCC4 / RFU, LOC101060439 /// RAP1B / Fold change vs veh, LOC101060439 /// RAP1B / RFU, RFX7 / Fold change vs veh, RFX7 / RFU, GTPBP10 / Fold change vs veh, GTPBP10 / RFU, CNEP1R1 / Fold change vs veh, CNEP1R1 / RFU, BIVM-ERCC5 /// ERCC5 / Fold change vs veh, BIVM-ERCC5 /// ERCC5 / RFU, ILF3 / Fold change vs veh, ILF3 / RFU 11762660_at / Fold change /veh 11762660_at / RFU VCAN (11757783_s_at) / Fold change /veh VCAN (11757783_s_at) / RFU DDX43 (11728927_at) / Fold change /veh DDX43 (11728927_at) / RFU KRT8 (11758188_x_at) / Fold change /veh KRT8 (11758188_x_at) / RFU NKD1 (11759106_at) / Fold change /veh NKD1 (11759106_at) / RFU SRD5A1 (11742802_a_at) / Fold change /veh SRD5A1 (11742802_a_at) / RFU TPSAB1 /// TPSB2 (11721975_s_at) / Fold change /veh TPSAB1 /// TPSB2 (11721975_s_at) / RFU GSTM3 (11746129_a_at) / Fold change /veh GSTM3 (11746129_a_at) / RFU IL23R (11737362_x_at) / Fold change /veh IL23R (11737362_x_at) / RFU TMEM51 (11727254_a_at) / Fold change /veh TMEM51 (11727254_a_at) / RFU PIWIL2 (11732686_x_at) / Fold change /veh PIWIL2 (11732686_x_at) / RFU ORM1 (11744905_x_at) / Fold change /veh ORM1 (11744905_x_at) / RFU CCDC152 (11743942_at) / Fold change /veh CCDC152 (11743942_at) / RFU ECM1 (11717891_a_at) / Fold change /veh ECM1 (11717891_a_at) / RFU IL23R (11748794_a_at) / Fold change /veh IL23R (11748794_a_at) / RFU TNFAIP8L3 (11732012_x_at) / Fold change /veh TNFAIP8L3 (11732012_x_at) / RFU MBOAT4 (11741988_at) / Fold change /veh MBOAT4 (11741988_at) / RFU 11764193_at / Fold change /veh 11764193_at / RFU TMEM53 (11763286_at) / Fold change /veh TMEM53 (11763286_at) / RFU MAGEB2 (11727129_at) / Fold change /veh MAGEB2 (11727129_at) / RFU TMEM200A (11744735_a_at) / Fold change /veh TMEM200A (11744735_a_at) / RFU CCDC152 (11751479_a_at) / Fold change /veh CCDC152 (11751479_a_at) / RFU FAM211A (11726209_a_at) / Fold change /veh FAM211A (11726209_a_at) / RFU RGS16 (11746705_a_at) / Fold change /veh RGS16 (11746705_a_at) / RFU VCAN (11755009_s_at) / Fold change /veh VCAN (11755009_s_at) / RFU RHOB (11743442_s_at) / Fold change /veh RHOB (11743442_s_at) / RFU RGS16 (11720943_a_at) / Fold change /veh RGS16 (11720943_a_at) / RFU RGS16 (11720944_at) / Fold change /veh RGS16 (11720944_at) / RFU, VPS4B / Fold change vs veh, VPS4B / RFU, CREB1 / Fold change vs veh, CREB1 / RFU, DNAJC13 / Fold change vs veh, DNAJC13 / RFU, GNAQ / Fold change vs veh, GNAQ / RFU, CDK5R1 / Fold change vs veh, CDK5R1 / RFU, ZRANB3 / Fold change vs veh, ZRANB3 / RFU, CUL4A / Fold change vs veh, CUL4A / RFU, CCNY / Fold change vs veh, CCNY / RFU, UFL1 / Fold change vs veh, UFL1 / RFU, COG3 / Fold change vs veh, COG3 / RFU, DIAPH2 / Fold change vs veh, DIAPH2 / RFU, SKA2 / Fold change vs veh, SKA2 / RFU, AFF3 / Fold change vs veh, AFF3 / RFU, LMF1 / Fold change vs veh, LMF1 / RFU, IPO11 / Fold change vs veh, IPO11 / RFU, DFFB / Fold change vs veh, DFFB / RFU, FOXP1 / Fold change vs veh, FOXP1 / RFU, CARD8 / Fold change vs veh, CARD8 / RFU, STRN3 / Fold change vs veh, STRN3 / RFU, ADK / Fold change vs veh, ADK / RFU, RASSF2 / Fold change vs veh, RASSF2 / RFU, WIPF1 / Fold change vs veh, WIPF1 / RFU, LARP1B / Fold change vs veh, LARP1B / RFU, RASA1 / Fold change vs veh, RASA1 / RFU, RB1 / Fold change vs veh, RB1 / RFU, PPFIA1 / Fold change vs veh, PPFIA1 / RFU, MAT2A / Fold change vs veh, MAT2A / RFU, CCT5 / Fold change vs veh, CCT5 / RFU, WDR92 / Fold change vs veh, WDR92 / RFU, CUX1 / Fold change vs veh, CUX1 / RFU, TTC7A / Fold change vs veh, TTC7A / RFU, TMEM135 / Fold change vs veh, TMEM135 / RFU, DEPTOR / Fold change vs veh, DEPTOR / RFU, CPM / Fold change vs veh, CPM / RFU, DNAJB6 / Fold change vs veh, DNAJB6 / RFU, CACNA2D3 / Fold change vs veh, CACNA2D3 / RFU, DTX4 / Fold change vs veh, DTX4 / RFU, TFCP2 / Fold change vs veh, TFCP2 / RFU, GMCL1 /// GMCL1P1 / Fold change vs veh, GMCL1 /// GMCL1P1 / RFU, AEBP2 / Fold change vs veh, AEBP2 / RFU, SNHG1 /// SNORD22 /// SNORD25 /// SNORD26 /// SNORD27 /// SNORD28 /// SNORD29 /// SNORD31 / Fold change vs veh, SNHG1 /// SNORD22 /// SNORD25 /// SNORD26 /// SNORD27 /// SNORD28 /// SNORD29 /// SNORD31 / Fold change (Aza/veh), C12orf56 (ProbeSet 11735607_a_at) / Fold change (ACY-1035/veh), C12orf56 (ProbeSet 11735607_a_at) / Fold change (Aza/veh), FGFR1OP (ProbeSet 11751329_s_at) / Fold change (ACY-1035/veh), FGFR1OP (ProbeSet 11751329_s_at) / Fold change (Aza/veh), VPS36 (ProbeSet 11739960_a_at) / Fold change (ACY-1035/veh), VPS36 (ProbeSet 11739960_a_at) / RFU SYPL1 (11715823_x_at) / Fold change /veh SYPL1 (11715823_x_at) / RFU IGFBP7 (11715501_s_at) / Fold change /veh IGFBP7 (11715501_s_at) / RFU REEP3 (11722064_at) / Fold change /veh REEP3 (11722064_at) / RFU IGLL1 (11728026_x_at) / Fold change /veh IGLL1 (11728026_x_at): dose or concentration left out as unconfirmed
Conditions: ProbeSet 11747889_x_at; LIST B

Nc1ncn([C@@H]2O[C@H](CO)[C@@H](O)[C@H]2O)c(=O)n1 [azacitidine] was tested, and the “RFU, SH3YL1” value was 57.53 RFU.
